In PubChem BioAssay AID248 (DTP/NCI, 2004):
Where “and” joins values, the source holds several entries; their conditions need not be identical. Equal entries are not always repeated. Inconclusive results and toxic doses are left out. Rule as the data show it: active = T/C of 150% or more; inactive = T/C below 125%.

System: L1210 leukemia ip in BDF1 mice, survival T/C
Assay: NCI In Vivo Anticancer Drug Screen. Data for tumor model L1210 Leukemia (intraperitoneal) in B6D2F1 (BDF1) mice
Conditions: endpoint: mean survival time, higher = longer survival
Procedure, shortened: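 In this screen, tumor-bearing mice given compound are compared to those given vehicle, and their survival values are reported as a treated-to-control quotient.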

[1] = dose: 100.0 mg/kg/injection, schedule: Q01DX009 (ip), vehicle: saline with Tween-80
[2] = dose: 200.0 mg/kg/injection, schedule: Q01DX009 (ip), vehicle: saline with Tween-80
[3] = dose: 400.0 mg/kg/injection, schedule: Q01DX009 (ip), vehicle: saline with Tween-80
[4] = dose: 100.0 mg/kg/injection, schedule: Q01DX009 (ip), vehicle: Klucel (hydroxypropylcellulose) (HPC)
[5] = dose: 100.0 mg/kg/injection, schedule: Q04DX003 (ip), vehicle: Klucel (hydroxypropylcellulose) (HPC)
[6] = dose: 200.0 mg/kg/injection, schedule: Q01DX009 (ip), vehicle: Klucel (hydroxypropylcellulose) (HPC)
[7] = dose: 200.0 mg/kg/injection, schedule: Q04DX003 (ip), vehicle: Klucel (hydroxypropylcellulose) (HPC)
[8] = dose: 400.0 mg/kg/injection, schedule: Q01DX009 (ip), vehicle: Klucel (hydroxypropylcellulose) (HPC)
[9] = dose: 400.0 mg/kg/injection, schedule: Q04DX003 (ip), vehicle: Klucel (hydroxypropylcellulose) (HPC)
[10] = dose: 50.0 mg/kg/injection, schedule: Q01DX001 (ip), vehicle: carboxymethylcellulose (CMC)
[11] = dose: 100.0 mg/kg/injection, schedule: Q04DX002 (ip), vehicle: Klucel (hydroxypropylcellulose) (HPC)
[12] = dose: 200.0 mg/kg/injection, schedule: Q04DX002 (ip), vehicle: Klucel (hydroxypropylcellulose) (HPC)
[13] = dose: 400.0 mg/kg/injection, schedule: Q04DX002 (ip), vehicle: Klucel (hydroxypropylcellulose) (HPC)
[14] = dose: 50.0 mg/kg/injection, schedule: Q01DX009 (ip), vehicle: saline with Tween-80
[15] = dose: 100.0 mg/kg/injection, schedule: Q04DX003 (ip), vehicle: saline with Tween-80
[16] = dose: 200.0 mg/kg/injection, schedule: Q04DX003 (ip), vehicle: saline with Tween-80
[17] = dose: 400.0 mg/kg/injection, schedule: Q04DX003 (ip), vehicle: saline with Tween-80
[18] = dose: 25.0 mg/kg/injection, schedule: Q01DX009 (ip), vehicle: saline with Tween-80
[19] = dose: 100.0 mg/kg/injection, schedule: Q01DX001 (ip), vehicle: saline with Tween-80
[20] = dose: 100.0 mg/kg/injection, schedule: Q04DX002 (ip), vehicle: saline with Tween-80
[21] = dose: 200.0 mg/kg/injection, schedule: Q01DX001 (ip), vehicle: saline with Tween-80
[22] = dose: 200.0 mg/kg/injection, schedule: Q04DX002 (ip), vehicle: saline with Tween-80
[23] = dose: 400.0 mg/kg/injection, schedule: Q04DX002 (ip), vehicle: saline with Tween-80

Measured: T/C

Cc1cc(=O)[nH]c2c(C)cc(-c3cc(C)c4[nH]c(=O)cc(C)c4c3)cc12
inactive: [1] 101 % of control | dose: 100.0 mg/kg/injection, schedule: Q04DX003 (ip), vehicle: saline 98 % of control | [2] 97 % of control | dose: 200.0 mg/kg/injection, schedule: Q04DX003 (ip), vehicle: saline 91 % of control | [3] 92 % of control | dose: 400.0 mg/kg/injection, schedule: Q04DX003 (ip), vehicle: saline 98 % of control

CC1(C)C/C(=C\c2ccc(Cl)cc2)C(=O)c2ccccc21
inactive: [4] 97 % of control | [5] 95 % of control | [6] 93 % of control | [7] 92 % of control | [8] 97 % of control | [9] 92 % of control

Cc1ccc(S(=O)(=O)Cc2ccccc2)cc1
inactive: [10] 103 % of control | dose: 50.0 mg/kg/injection, schedule: Q01DX009 (ip), vehicle: saline 103 % of control | dose: 100.0 mg/kg/injection, schedule: Q01DX001 (ip), vehicle: carboxymethylcellulose (CMC) 103 % of control | dose: 100.0 mg/kg/injection, schedule: Q01DX009 (ip), vehicle: saline 99 % of control | [11] 100 % of control | dose: 200.0 mg/kg/injection, schedule: Q01DX001 (ip), vehicle: carboxymethylcellulose (CMC) 103 % of control | dose: 200.0 mg/kg/injection, schedule: Q01DX009 (ip), vehicle: saline 94 % of control | [12] 106 % of control | dose: 400.0 mg/kg/injection, schedule: Q01DX001 (ip), vehicle: carboxymethylcellulose (CMC) 97 % of control | [13] 95 % of control

O=[N+]([O-])c1ccc([As](=O)(O)c2ccc([N+](=O)[O-])cc2)cc1
inactive: dose: 75.0 mg/kg/injection, schedule: Q01DX001 (ip), vehicle: saline 95 % of control | dose: 150.0 mg/kg/injection, schedule: Q01DX001 (ip), vehicle: saline 100 % of control

CSc1ccc(C(=O)CCl)c(C)c1
inactive: [10] 94 % of control

Nc1ncnc2c1ncn2C1CCCCC1
inactive: dose: 17.5 mg/kg/injection, schedule: Q01DX Z (ip), vehicle: carboxymethylcellulose (CMC) 89 % of control | dose: 34.0 mg/kg/injection, schedule: Q01DX Z (ip), vehicle: carboxymethylcellulose (CMC) 98 % of control | dose: 34.0 mg/kg/injection, schedule: Q01DX Z (oral), vehicle: carboxymethylcellulose (CMC) 97 % of control | dose: 68.0 mg/kg/injection, schedule: Q01DX Z (ip), vehicle: carboxymethylcellulose (CMC) 102 % of control | dose: 68.0 mg/kg/injection, schedule: Q01DX Z (oral), vehicle: carboxymethylcellulose (CMC) 100 % of control | dose: 136.0 mg/kg/injection, schedule: Q01DX Z (oral), vehicle: carboxymethylcellulose (CMC) 102 % of control

O=[N+]([O-])c1cccc(S(=O)(=O)Oc2ccccc2)c1
inactive: [4] 102 % of control | [6] 95 % of control | [8] 101 % of control

O=C(NCc1ccc([N+](=O)[O-])cc1)OCc1ccccc1
inactive: [4] 103 % of control | [5] 102 % of control | [6] 102 % of control | [7] 104 % of control | [8] 94 % of control | [9] 96 % of control

CCN(CC)c1ccc(NC(=O)Nc2ccccc2OC)cc1
inactive: [14] 103 % of control | [1] 93 % of control and 101 % of control | [15] 103 % of control | [2] 101 % of control | [16] 97 % of control | [3] 95 % of control | [17] 96 % of control

C/C(=N\NC(=S)Nc1cc(Cl)ccc1Cl)c1ccc(O)cc1O
inactive: dose: 100.0 mg/kg/injection, schedule: Q01DX001 (ip), vehicle: Klucel (hydroxypropylcellulose) (HPC) 88 % of control | dose: 200.0 mg/kg/injection, schedule: Q01DX001 (ip), vehicle: Klucel (hydroxypropylcellulose) (HPC) 96 % of control | dose: 400.0 mg/kg/injection, schedule: Q01DX001 (ip), vehicle: Klucel (hydroxypropylcellulose) (HPC) 95 % of control

Cc1cccc(NC(=O)Cc2ccccc2)c1C
inactive: dose: 100.0 mg/kg/injection, schedule: Q04DX002 (ip), vehicle: saline 99 % of control | dose: 200.0 mg/kg/injection, schedule: Q04DX002 (ip), vehicle: saline 105 % of control | dose: 400.0 mg/kg/injection, schedule: Q04DX002 (ip), vehicle: saline 101 % of control

CNc1ccc(S(=O)(=O)c2ccc(NC)c([N+](=O)[O-])c2)cc1[N+](=O)[O-]
inactive: dose: 100.0 mg/kg/injection, schedule: Q01DX005 (ip), vehicle: gum acacia 93 % of control | dose: 100.0 mg/kg/injection, schedule: Q01DX009 (ip), vehicle: gum acacia 94 % of control | dose: 200.0 mg/kg/injection, schedule: Q01DX005 (ip), vehicle: gum acacia 93 % of control | dose: 200.0 mg/kg/injection, schedule: Q01DX009 (ip), vehicle: gum acacia 87 % of control | dose: 400.0 mg/kg/injection, schedule: Q01DX005 (ip), vehicle: gum acacia 96 % of control | dose: 400.0 mg/kg/injection, schedule: Q01DX009 (ip), vehicle: gum acacia 90 % of control

CN(C)c1ccc(/C=N/NC(=O)CCCCCCCCC(=O)N/N=C/c2ccc(N(C)C)cc2)cc1
inactive: dose: 12.5 mg/kg/injection, schedule: Q01DX009 (ip), vehicle: saline with Tween-80 101 % of control and 104 % of control | [18] 94 % of control and 97 % of control | dose: 50.0 mg/kg/injection, schedule: Q04DX003 (ip), vehicle: saline with Tween-80 98 % of control | [19] 100 % of control | [20] 101 % of control and 104 % of control | [15] 93 % of control | [21] 100 % of control | [22] 101 % of control and 102 % of control | [23] 108 % of control

CN(C(N)=S)c1ccccc1
inactive: [15] 101 % of control | [16] 102 % of control | [17] 104 % of control

Clc1cccc(NC(c2ccccc2)=[N+]2CCCCC2)c1
inactive: [11] 95 % of control | [12] 106 % of control | [13] 113 % of control

O=C1C2CC=CCC2C(=O)C2CC=CCC12 (stereo unspecified)
inactive: [1] 99 % of control | [2] 93 % of control | [3] 90 % of control

CSc1ccc(NC(=O)Oc2ccc3c(C)cc(=O)oc3c2)cc1
inactive: [18] 93 % of control and 100 % of control | [14] 95 % of control and 89 % of control | [19] 94 % of control | [20] 98 % of control and 91 % of control | [15] 87 % of control | [21] 94 % of control | [22] 94 % of control and 91 % of control | [16] 86 % of control | dose: 400.0 mg/kg/injection, schedule: Q01DX001 (ip), vehicle: saline with Tween-80 96 % of control | [23] 96 % of control and 98 % of control | [17] 95 % of control

COC(=O)CCSP(=S)(Oc1ccccc1)Oc1ccccc1
inactive: [4] 107 % of control | [6] 105 % of control | [8] 96 % of control
